Experimental data from patent publication EP4631940A1, “COMPOUND TARGETING PAN-KRAS PROTEIN DEGRADATION AGENT AND USE THEREOF” (Betta Pharmaceuticals Co., Ltd., priority 2022, dated 2024).
Where two headings read alike, the source gives them in different places.

What was measured:
[1] = tested on: AGS; assay: Cell proliferation experiment (CellTiter-Glo); assay type: cell-based; conditions: Homo sapiens, AGS, 96 h, read-out: IC50(nM) AGS
[2] = tested on: SW620; assay: Cell proliferation experiment (CellTiter-Glo); assay type: cell-based; conditions: Homo sapiens, SW-620, 96 h, read-out: IC50(nM) SW620
[3] = in vitro; conditions: human, microsomes
[4] = target: T1, KRAS G12D (Homo sapiens, UniProt P01116, G12D)
[5] = in vitro; conditions: mouse, microsomes
[6] = in vitro; conditions: rat, microsomes
[7] = PK study in Balbc mice (whole blood); assay type: in vivo; conditions: Female Balbc mice, IV 1 mg/kg
Protocol: Example 7 PK Study of Compound 2 in Balbc Mice
(§1) Compound 2 was mixed with the vehicle (10% DMSO / 5% Solutol HS 15 / 85% saline), vortexed, and sonicated to prepare a clear solution at 0.2 mg/mL. Female Balbc mice aged 6 to 7 weeks (non-fasted) were intravenously administered Compound 2. Whole blood was collected at specified time points. Drug concentration was analyzed by LC-MS/MS, and pharmacokinetic parameters were calculated using Phoenix WinNonlin software (Pharsight Corporation, USA). Table 10 Mouse PK Data for Intravenous Compound 2 Monotherapy

[8] = target: T1, KRAS G12D; assay: cell-based; conditions: AGS
[9] = tested on: H358; assay: Cell proliferation experiment (CellTiter-Glo); assay type: cell-based; conditions: Homo sapiens, NCI-H358; H358, KRAS mutation type G12C; 96 h incubation
[10] = PK study in ICR mice (plasma); assay type: in vivo; conditions: Female ICR mice, IV 1 mg/kg; for AUC(0-t) / C0 / half-life: mouse
Protocol: Example 9 PK Study of Compound in ICR Mice (plasma)
as §1, with “The compound was” for “Compound 2 was”, “Female ICR” for “Female Balbc”, “administered the compound. Plasma” for “administered Compound 2. Whole blood”, “Table 12” for “Table 10”, “Compound” for “Compound 2”

[11] = not given; remark: listed apart in the source
[12] = in vitro; conditions: dog, microsomes
[13] = tested on: HCT116; assay: Cell proliferation experiment (CellTiter-Glo); assay type: cell-based; conditions: Homo sapiens, HCT-116; HCT116, KRAS mutation type G13D; 96 h incubation
[14] = target: T2, KRAS G13D (Homo sapiens, UniProt P01116, G13D); assay: Western blot study of KRAS degradation in HCT116 cells; assay type: cell-based; conditions: 3 h incubation
T2 construct: endogenous in cells; host or cells: HCT116

[15] = target: T1, KRAS G12D; assay: Western blot study of KRAS degradation in AGS cells; assay type: cell-based; parameters: endogenous in cells; host or cells: AGS; conditions: 3 h incubation
[16] = tested on: H1975; assay: Cell proliferation experiment (CellTiter-Glo); assay type: cell-based; conditions: Homo sapiens, NCI-H1975; H1975, KRAS WT; 96 h incubation
[17] = tested on: PK-59 cells; assay: Anti-tumor effects in a human pancreatic cancer xenograft model carrying KRAS^G12D mutation; assay type: in vivo, BALB/c Nude Crlj mice; conditions: QW, tail vein, PK-59 xenograft
[18] = tested on: PK59; assay: Cell proliferation experiment (CellTiter-Glo); assay type: cell-based; conditions: PK-59; PK59, KRAS mutation type G12D; 96 h incubation
[19] = PK study in Beagle dogs (plasma); assay type: in vivo; conditions: IV 1 mg/kg
Protocol: Example 10 PK Study of Compound 135 in Beagle Dogs
Compound 135 was mixed with the vehicle (10% DMSO / 5% Solutol HS 15 / 85% saline), vortexed, and sonicated to prepare a clear solution at 0.5 mg/mL. Beagle dogs weighing approximately 10 kg (equal number of males and females, non-fasted) were intravenously administered the compound. Plasma was collected at specified time points. Drug concentration was analyzed by LC-MS/MS, and pharmacokinetic parameters were calculated using Phoenix WinNonlin software (Pharsight Corporation, USA). Table 13 Beagle Dog PK Data for Intravenous Compound Monotherapy

[20] = target: T3, KRAS G12V (Homo sapiens, UniProt P01116, G12V); assay: Western blot study of KRAS degradation in SW620 cells; assay type: cell-based; conditions: 3 h incubation
T3 construct: endogenous in cells; host or cells: SW620
T3 sequence (P01116 1-188 isoform P01116-2 G12V): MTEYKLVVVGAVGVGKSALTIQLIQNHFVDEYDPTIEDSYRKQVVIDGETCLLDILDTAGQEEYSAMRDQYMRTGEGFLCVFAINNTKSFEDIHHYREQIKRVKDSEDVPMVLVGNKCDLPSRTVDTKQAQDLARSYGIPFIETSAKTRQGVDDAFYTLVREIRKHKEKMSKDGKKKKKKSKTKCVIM

T1 sequence (P01116 1-188 isoform P01116-2 G12D): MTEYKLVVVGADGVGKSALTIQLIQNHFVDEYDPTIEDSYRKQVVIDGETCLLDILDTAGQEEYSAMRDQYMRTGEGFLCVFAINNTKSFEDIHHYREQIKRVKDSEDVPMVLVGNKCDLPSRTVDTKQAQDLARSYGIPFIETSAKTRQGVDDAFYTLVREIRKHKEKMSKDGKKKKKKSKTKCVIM
T2 sequence (P01116 1-188 isoform P01116-2 G13D): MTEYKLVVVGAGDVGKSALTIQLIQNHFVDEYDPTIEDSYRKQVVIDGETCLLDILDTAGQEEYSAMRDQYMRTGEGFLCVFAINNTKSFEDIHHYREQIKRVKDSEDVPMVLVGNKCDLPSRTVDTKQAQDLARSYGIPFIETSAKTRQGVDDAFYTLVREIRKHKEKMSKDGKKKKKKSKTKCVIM

With `CCc1c(F)ccc2cc(O)cc(-c3ncc4c(N5CCCC(C)(O)C5)nc(OC[C@]56CCCN5[C@@H](COC(=O)N5CCC7(CC5)CC(C(=O)N[C@H](C(=O)N5C[C@H](O)C[C@H]5C(=O)N[C@@H](C)c5ccc(-c8scnc8C)cc5)C(C)(C)C)C7)CC6)nc4c3F)c12` (stereo partly drawn) [Compound 2, ((3R,7aR)-7a-(((7-(8-ethyl-7-fluoro-3-hydroxynaphthalen-1-yl)-8-fluoro-4-(3-hydroxy-3-methylpiperidin-1-yl)pyrido[4,3-d]pyrimidin-2-yl)oxy)methyl)hexahydro-1H-pyrrolizin-3-yl)methyl 2-(((S)-1-((2S,4R)-4-hydroxy-2-(((S)-1-(4-(4-methylthiazol-5-yl)phenyl)ethyl)carbamoyl)pyrrolidin-1-yl)-3,3-dimethyl-1-oxobutan-2-yl)carbamoyl)-7-azaspiro[3.5]nonane-7-carboxylate] the IC50 [1] was 44 nM, the IC50 [2] was 501 nM and the “The in vitro intrinsic clearance in liver microsomes (CLint, in vitro, µL/min/mg protein) Dog” value was 0.0 µL/min/mg protein. For the same compound, the microsomal CLint [3] was 31 µL/min/mg, the DC50 ([4]; AGS cell line, In Cell Western Blotting, KRAS^G12D vs GAPDH) was 316 nM and the microsomal CLint [5] was 16.6 µL/min/mg. For the same compound, the microsomal CLint [6] was 11.6 µL/min/mg, the “Cl_obs” value [7] was 3.77 mL/min/kg and the “Vss_obs” value [7] was 0.586 L/kg. It also gave an AUC(0-t) ([7]; mouse) of 4380 ng·h/mL, a C0 ([7]; mouse) of 8790 ng/mL and a half-life ([7]; mouse) of 6.49 h. For the same compound, the Dmax [8] was 95% and the IC50 [9] was 143 nM.

For `CCc1c(F)ccc2cc(O)cc(-c3ncc4c(N5CCC[C@@](C)(O)C5)nc(OCC5(CN6CCN(c7ccc(-c8cn([C@H](C(=O)N9C[C@H](O)C[C@H]9C(=O)N[C@@H](C)c9ccc(-c%10scnc%10C)cc9)C(C)C)nn8)cn7)CC6)CC5)nc4c3F)c12` [Compound 142], the IC50 [1] was 10 nM, the “Cl_obs” value [10] was 7.32 mL/min/kg and the “Vss_obs” value [10] was 0.854 L/kg. It also gave an AUC(0-t) [10] of 2300 ng·h/mL, a C0 [10] of 9460 ng/mL and a half-life [10] of 4.1 h. For the same compound, the microsomal CLint [3] was 11.1 µL/min/mg, the DC50 [4] was 6.3 nM and the microsomal CLint [5] was 17.7 µL/min/mg. The “The in vitro intrinsic clearance in liver microsomes (CLint, in vitro, µL/min/mg protein) Rat” value [11] was 0.0 µL/min/mg protein, the microsomal CLint [12] was 14.2 µL/min/mg and the Dmax [8] was 95%.

Work on `CCc1c(F)ccc2cc(O)cc(-c3ncc4c(N5CCC[C@@](C)(O)C5)nc(OCC5(CN6CCC(Oc7cnc(-c8cn([C@H](C(=O)N9C[C@H](O)C[C@H]9C(=O)N[C@@H](C)c9ccc(-c%10scnc%10C)cc9)C(C)C)nn8)cn7)CC6)CC5)nc4c3F)c12` [Compound 144] yielded an IC50 [1] of 3 nM, an IC50 [2] of 8.4 nM and an IC50 [13] of 13 nM. For the same compound, the “KRAS G13D protein degradation (Western blot, Fig. 5)” value [14] was “effectively degraded”, the “KRAS G12D protein degradation (Western blot, Fig. 5)” value [15] was “effectively degraded” and the IC50 [16] was greater than 10000 nM. For the same compound, the “TGI After 4 Weeks of Administration (%)” value ([17]; 1 mg/kg) was 82%, the “TGI After 4 Weeks of Administration (%)” value ([17]; 3 mg/kg) was 93% and the “TGI After 4 Weeks of Administration (%)” value ([17]; 10 mg/kg) was 113%. The “Cl_obs” value [10] was 5.81 mL/min/kg, the “Vss_obs” value [10] was 1.54 L/kg and the AUC(0-t) [10] was 2730 ng·h/mL. The C0 [10] was 5530 ng/mL, the half-life [10] was 9.34 h and the microsomal CLint [3] was 18.8 µL/min/mg. For the same compound, the DC50 [4] was 1.1 nM, the microsomal CLint [5] was 10.9 µL/min/mg and the microsomal CLint [6] was 6.2 µL/min/mg. For the same compound, the IC50 [18] was 4.4 nM, the “Cl_obs” value [19] was 6.19 mL/min/kg and the “Vss_obs” value [19] was 3.46 L/kg. It also gave an AUC(0-t) ([19]; dog) of 2520 ng·h/mL, a C0 ([19]; dog) of 9890 ng/mL and a half-life ([19]; dog) of 20.5 h. For the same compound, the microsomal CLint [12] was 7.4 µL/min/mg, the “KRAS G12V protein degradation (Western blot, Fig. 5)” value [20] was “effectively degraded” and the Dmax [8] was 95%. It also gave an IC50 [9] of 5 nM.
